tested on: not listed separately; experiment: Cytotoxicity against mock-infected MDBK cells assessed as reduction in cell viability after 72 hrs by MTT assay; type: cell-based, Bos taurus; settings: cattle

Structure (SMILES) | CC50 at 72 h [µM]
CSc1ccc(-c2nc3cc4cccnc4c(Cl)c3[nH]2)cc1 | > 100
NS(=O)(=O)c1ccc(-c2nc3cc4cccnc4c(Cl)c3[nH]2)cc1 | > 100
COc1ccc(-c2nc3cc4cccnc4c(Cl)c3[nH]2)c(OC)c1 | > 100
Clc1c2ncccc2cc2nc(-c3ccoc3)[nH]c12 | > 100
N#Cc1ccc(-c2nc3cc4cccnc4c(Cl)c3[nH]2)cc1 | > 100
NC(=O)c1ncn([C@@H]2O[C@H](CO)[C@@H](O)[C@H]2O)n1 [RIBAVIRIN] | 5
FC(F)(F)c1ccc(-c2nc3cc4cccnc4cc3[nH]2)cc1 | > 100
FC(F)(F)c1ccc(-c2nc3cc4cccnc4c(Cl)c3[nH]2)cc1 | > 100

tested on: not listed separately; experiment: Antiviral activity against BVDV NADL infected in MDBK cells assessed as inhibition of virus induced cytopathogenicity after 3 to 4 days by MTT assay; type: functional, cell-based, Bovine viral diarrhea virus 1-NADL; settings: Bovine viral diarrhea virus isolates and strains

Structure (SMILES) | EC50 [µM]
Cn1c(=O)c(-c2cccs2)nc2c(Cl)c3ncccc3cc21 | 2
CSc1ccc(-c2nc3cc4cccnc4c(Cl)c3[nH]2)cc1 | 6.1
NS(=O)(=O)c1ccc(-c2nc3cc4cccnc4c(Cl)c3[nH]2)cc1 | > 100
COc1ccc(-c2nc3cc4cccnc4c(Cl)c3[nH]2)c(OC)c1 | 6.3
Clc1c2ncccc2cc2nc(-c3ccoc3)[nH]c12 | 2
N#Cc1ccc(-c2nc3cc4cccnc4c(Cl)c3[nH]2)cc1 | 0.3
NC(=O)c1ncn([C@@H]2O[C@H](CO)[C@@H](O)[C@H]2O)n1 [RIBAVIRIN] | 1.3
FC(F)(F)c1ccc(-c2nc3cc4cccnc4cc3[nH]2)cc1 | 7
FC(F)(F)c1ccc(-c2nc3cc4cccnc4c(Cl)c3[nH]2)cc1 | 2

tested on: not listed separately; experiment: Selectivity index, ratio of CC50 for MDBK cells to EC50 for […] NADL infected in MDBK cells; settings: not given

Structure (SMILES) | Ratio CC50/EC50
CSc1ccc(-c2nc3cc4cccnc4c(Cl)c3[nH]2)cc1 | >16.4
COc1ccc(-c2nc3cc4cccnc4c(Cl)c3[nH]2)c(OC)c1 | >15.9
Clc1c2ncccc2cc2nc(-c3ccoc3)[nH]c12 | >50
N#Cc1ccc(-c2nc3cc4cccnc4c(Cl)c3[nH]2)cc1 | >333.3
NC(=O)c1ncn([C@@H]2O[C@H](CO)[C@@H](O)[C@H]2O)n1 [RIBAVIRIN] | 3.8
FC(F)(F)c1ccc(-c2nc3cc4cccnc4cc3[nH]2)cc1 | >14.2
FC(F)(F)c1ccc(-c2nc3cc4cccnc4c(Cl)c3[nH]2)cc1 | >50

tested on: not listed separately; experiment: Inhibition of His tagged BVDV NS5B Cdelta24 RNA dependent RNA polymerase expressed in Escherichia coli Rosetta DE3 preincubated for 30 mins followed by addition of GTP measured after 120 mins by fluorescence analysis; parameters: species or system Bovine viral diarrhea virus 1; settings: not given

Structure (SMILES) | IC50 [µM]
N#Cc1ccc(-c2nc3cc4cccnc4c(Cl)c3[nH]2)cc1 | 0.48

tested on: Vaccinia virus; experiment: Antiviral activity against Vaccinia virus Elstree infected in Vero 76 cells after 3 days by crystal violet staining based plaque reduction assay; type: functional, organism-based; settings: Orthopoxvirus vaccinia, Vero 76, 72 h

Structure (SMILES) | EC50 [µM]
CSc1ccc(-c2nc3cc4cccnc4c(Cl)c3[nH]2)cc1 | > 100
NS(=O)(=O)c1ccc(-c2nc3cc4cccnc4c(Cl)c3[nH]2)cc1 | > 100
COc1ccc(-c2nc3cc4cccnc4c(Cl)c3[nH]2)c(OC)c1 | 13
FC(F)(F)c1ccc(-c2nc3cc4cccnc4cc3[nH]2)cc1 | > 100
FC(F)(F)c1ccc(-c2nc3cc4cccnc4c(Cl)c3[nH]2)cc1 | > 100

tested on: Poliovirus 1; experiment: Antiviral activity against Human poliovirus 1 strain Sabin infected in Vero 76 cells after 2 days by crystal violet staining based plaque reduction assay; type: functional, organism-based; settings: Enterovirus C, Vero 76, 48 h

Structure (SMILES) | EC50 [µM]
CSc1ccc(-c2nc3cc4cccnc4c(Cl)c3[nH]2)cc1 | > 100
NS(=O)(=O)c1ccc(-c2nc3cc4cccnc4c(Cl)c3[nH]2)cc1 | 21
COc1ccc(-c2nc3cc4cccnc4c(Cl)c3[nH]2)c(OC)c1 | 41
FC(F)(F)c1ccc(-c2nc3cc4cccnc4cc3[nH]2)cc1 | 67
FC(F)(F)c1ccc(-c2nc3cc4cccnc4c(Cl)c3[nH]2)cc1 | > 100

tested on: not listed separately; experiment: Cytotoxicity against mock-infected african green monkey Vero 76 cells assessed as reduction in cell viability after 48 to 96 hrs by MTT assay; type: cell-based; settings: chlorocebus sabaeus, mock-infected Vero 76 cells

Structure (SMILES) | CC50 [µM]
CSc1ccc(-c2nc3cc4cccnc4c(Cl)c3[nH]2)cc1 | > 100
NS(=O)(=O)c1ccc(-c2nc3cc4cccnc4c(Cl)c3[nH]2)cc1 | > 100
COc1ccc(-c2nc3cc4cccnc4c(Cl)c3[nH]2)c(OC)c1 | > 100
FC(F)(F)c1ccc(-c2nc3cc4cccnc4cc3[nH]2)cc1 | > 100
FC(F)(F)c1ccc(-c2nc3cc4cccnc4c(Cl)c3[nH]2)cc1 | > 100

tested on: Yellow fever virus; experiment: Antiviral activity against Yellow fever virus 17D infected in BHK21 cells assessed as inhibition of virus induced cytopathogenicity after 3 to 4 days by MTT assay; type: functional, cell-based; settings: BHK-21

Structure (SMILES) | EC50 [µM]
CSc1ccc(-c2nc3cc4cccnc4c(Cl)c3[nH]2)cc1 | > 100
NS(=O)(=O)c1ccc(-c2nc3cc4cccnc4c(Cl)c3[nH]2)cc1 | > 100
COc1ccc(-c2nc3cc4cccnc4c(Cl)c3[nH]2)c(OC)c1 | 95
FC(F)(F)c1ccc(-c2nc3cc4cccnc4cc3[nH]2)cc1 | > 100
FC(F)(F)c1ccc(-c2nc3cc4cccnc4c(Cl)c3[nH]2)cc1 | > 56

tested on: Mammalian orthoreovirus 1; experiment: Antiviral activity against Reovirus type-1 3651 infected in BHK21 cells assessed as inhibition of virus induced cytopathogenicity after 3 to 4 days by MTT assay; type: functional, cell-based; settings: Mammalian orthoreovirus 1, 3651, BHK-21

Structure (SMILES) | EC50 [µM]
CSc1ccc(-c2nc3cc4cccnc4c(Cl)c3[nH]2)cc1 | 100
NS(=O)(=O)c1ccc(-c2nc3cc4cccnc4c(Cl)c3[nH]2)cc1 | > 100
COc1ccc(-c2nc3cc4cccnc4c(Cl)c3[nH]2)c(OC)c1 | > 100
FC(F)(F)c1ccc(-c2nc3cc4cccnc4cc3[nH]2)cc1 | 52
FC(F)(F)c1ccc(-c2nc3cc4cccnc4c(Cl)c3[nH]2)cc1 | > 100

tested on: Respiratory syncytial virus; experiment: Antiviral activity against Respiratory syncytial virus A2 infected in Vero 76 cells after 5 days by crystal violet staining based plaque reduction assay; type: functional, organism-based; settings: human respiratory syncytial virus, A2, Vero 76, 120 h

Structure (SMILES) | EC50 [µM]
CSc1ccc(-c2nc3cc4cccnc4c(Cl)c3[nH]2)cc1 | > 100
NS(=O)(=O)c1ccc(-c2nc3cc4cccnc4c(Cl)c3[nH]2)cc1 | 18
COc1ccc(-c2nc3cc4cccnc4c(Cl)c3[nH]2)c(OC)c1 | 10
FC(F)(F)c1ccc(-c2nc3cc4cccnc4cc3[nH]2)cc1 | > 100
FC(F)(F)c1ccc(-c2nc3cc4cccnc4c(Cl)c3[nH]2)cc1 | > 100

tested on: not listed separately; experiment: Inhibition of His tagged BVDV NS5B Cdelta24 RNA dependent RNA polymerase K263A mutant expressed in Escherichia coli Rosetta DE3 preincubated for 30 mins followed by addition of GTP measured after 120 mins by fluorescence analysis; parameters: species or system Bovine viral diarrhea virus 1; settings: not given

Structure (SMILES) | IC50 [µM]
N#Cc1ccc(-c2nc3cc4cccnc4c(Cl)c3[nH]2)cc1 | 0.75

tested on: Coxsackievirus B2; experiment: Antiviral activity against CVB-2 infected in Vero 76 cells after 3 days by crystal violet staining based plaque reduction assay; type: functional, organism-based; settings: Enterovirus B, Vero 76, 72 h

Structure (SMILES) | EC50 [µM]
CSc1ccc(-c2nc3cc4cccnc4c(Cl)c3[nH]2)cc1 | > 100
NS(=O)(=O)c1ccc(-c2nc3cc4cccnc4c(Cl)c3[nH]2)cc1 | > 100
COc1ccc(-c2nc3cc4cccnc4c(Cl)c3[nH]2)c(OC)c1 | 29
FC(F)(F)c1ccc(-c2nc3cc4cccnc4cc3[nH]2)cc1 | > 100
FC(F)(F)c1ccc(-c2nc3cc4cccnc4c(Cl)c3[nH]2)cc1 | > 100

tested on: not listed separately; experiment: Cytotoxicity against mock-infected BHK21 cells assessed as reduction in cell viability after 72 hrs by MTT assay; type: cell-based, Mesocricetus auratus, BHK-21; settings: hamster

Structure (SMILES) | CC50 at 72 h [µM]
CSc1ccc(-c2nc3cc4cccnc4c(Cl)c3[nH]2)cc1 | > 100
NS(=O)(=O)c1ccc(-c2nc3cc4cccnc4c(Cl)c3[nH]2)cc1 | > 100
COc1ccc(-c2nc3cc4cccnc4c(Cl)c3[nH]2)c(OC)c1 | > 100
FC(F)(F)c1ccc(-c2nc3cc4cccnc4cc3[nH]2)cc1 | > 100
FC(F)(F)c1ccc(-c2nc3cc4cccnc4c(Cl)c3[nH]2)cc1 | > 100

tested on: Vesicular stomatitis virus; experiment: Antiviral activity against Vesicular stomatitis virus Indiana infected in Vero 76 cells after 2 days by crystal violet staining based plaque reduction assay; type: functional, organism-based; settings: Vero 76, 48 h

Structure (SMILES) | EC50 [µM]
CSc1ccc(-c2nc3cc4cccnc4c(Cl)c3[nH]2)cc1 | > 100
NS(=O)(=O)c1ccc(-c2nc3cc4cccnc4c(Cl)c3[nH]2)cc1 | > 100
COc1ccc(-c2nc3cc4cccnc4c(Cl)c3[nH]2)c(OC)c1 | > 100
FC(F)(F)c1ccc(-c2nc3cc4cccnc4cc3[nH]2)cc1 | > 100
FC(F)(F)c1ccc(-c2nc3cc4cccnc4c(Cl)c3[nH]2)cc1 | > 100
